The NIST ThermoML archive (doi:10.1021/je9006037)

Legend:
[1] = refractive index (Na D-line) (dimensionless); xn = mol fraction of the nth substance listed; conditions: 101 kPa, Liquid
[2] = 298.15 K; 101.33 kPa; Liquid

CC(C)O [propan-2-ol] + CCn1cc[n+](C)c1.O=S(=O)([O-])C(F)(F)F
[1], x2 = 0
Conditions | refractive index
288.15 K | 1.37924
298.15 K | 1.37492
308.15 K | 1.37048
318.15 K | 1.36586
328.15 K | 1.36103
338.15 K | 1.35599

CCCO [propan-1-ol]
Conditions | mass density [kg/m3]
[2] | 799.56

CCn1cc[n+](C)c1.O=S(=O)([O-])C(F)(F)F [1-ethyl-3-methylimidazolium trifluoromethanesulfonate] + CO
refractive index, [1]
Conditions | 288.15 K | 298.15 K | 308.15 K | 318.15 K
x1 = 0.04981 | 1.35401 | 1.35019 | 1.34673 | 1.34425
x1 = 0.1006 | 1.37019 | 1.36654 | 1.3636 | 1.36131
x1 = 0.1503 | 1.38187 | 1.37846 | 1.37522 | 1.37261
x1 = 0.2002 | 1.39131 | 1.38786 | 1.38479 | 1.38175
x1 = 0.2516 | 1.39849 | 1.39527 | 1.39212 | 1.38903
x1 = 0.3018 | 1.40415 | 1.40103 | 1.3983 | 1.39535
x1 = 0.3977 | 1.41297 | 1.40987 | 1.40694 | 1.40394
x1 = 0.499 | 1.41931 | 1.4163 | 1.41325 | 1.41035
x1 = 0.5911 | 1.42382 | 1.42086 | 1.41783 | 1.41502
x1 = 0.7059 | 1.42818 | 1.42529 | 1.42236 | 1.41954
x1 = 0.8054 | 1.43127 | 1.42843 | 1.42553 | 1.42265
x1 = 0.8494 | 1.43236 | 1.42952 | 1.42665 | 1.42387
x1 = 0.9013 | 1.43359 | 1.4308 | 1.42799 | 1.42515
x1 = 1 | 1.43599 | 1.43322 | 1.4304 | 1.42767

CCn1cc[n+](C)c1.O=S(=O)([O-])C(F)(F)F [1-ethyl-3-methylimidazolium trifluoromethanesulfonate]
Conditions | mass density [kg/m3]
[2] | 1383.58
